Test [1] has as its target T1, glutamate-oxaloacetate transaminase 1 (GOT1) (Homo sapiens, UniProt P17174). Description: MDH1-coupled enzyme assay, percent inhibition. In kind it is biochemical.
Test [2] concerns the target T1, glutamate-oxaloacetate transaminase 1 (GOT1). Description: MDH1-coupled enzyme assay, […] h pre-incubation. The format is biochemical.

SMILES strings stand for the structures.

The term IC50 denotes the concentration needed to halve the response being measured.

T1 sequence (P17174 2-413): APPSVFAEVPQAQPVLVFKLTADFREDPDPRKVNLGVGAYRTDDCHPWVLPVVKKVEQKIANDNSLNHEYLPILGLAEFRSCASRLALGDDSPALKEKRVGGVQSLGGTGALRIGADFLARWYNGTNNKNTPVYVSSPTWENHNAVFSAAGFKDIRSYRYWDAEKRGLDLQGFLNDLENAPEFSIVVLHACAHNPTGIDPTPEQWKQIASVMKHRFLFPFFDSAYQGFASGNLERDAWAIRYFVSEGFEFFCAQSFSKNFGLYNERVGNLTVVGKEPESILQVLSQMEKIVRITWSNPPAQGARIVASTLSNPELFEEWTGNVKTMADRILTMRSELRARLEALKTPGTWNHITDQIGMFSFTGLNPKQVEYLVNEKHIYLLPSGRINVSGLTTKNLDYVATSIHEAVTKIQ

Take `NOCC(=O)O` [amino-oxyacetate]: in test [1], the “MDH1-coupled enzyme assay, percent inhibition” value is recorded as “The pan-transaminase inhibitor amino-oxyacetate (AOA) was used as a positive control”.

In test [2], `N[C@H]1Cc2ccccc2N(O)C1=O` [PF-04859989] came in with an IC50 of 8 µM.
